Tests used:
rat mGlu2 receptor = target: T1, rat mGlu2 receptor (Rattus norvegicus, UniProt P31421); experiment: [3H]-LY354740 binding on mGlu2 transfected CHO cell membranes; conditions: 10 nM [3H]-LY354740, membranes of CHO cells transfected with rat mGlu2, room temperature, 1 hour
T1 construct: expressed in transfected cells; membranes prepared
Excerpt: [^3H]-LY354740 Binding on mGlu2 Transfected CHO Cell Membranes. Transfection and Cell Culture
cDNA encoding the rat mGlu2 receptor protein in pBluescript II was subcloned into the eukaryotic expression vector pcDNA I-amp from Invitrogen Ltd (Paisley, UK). This vector construct (pcD1mGR2) was co-transfected with a psvNeo plasmid encoding the gene for neomycin resistance, into CHO cells by a modified calcium phosphate method described by Chen & Okayama (1988). The cells were maintained in Dulbecco's Modified Eagle medium with reduced L-glutamine (2 mM final concentration) and 10% dialysed foetal calf serum from Gibco-Invitrogen (Carlsbad, Calif., USA). Selection was made in the presence of G-418 (1000 ug/ml final) and […]. Clones were identified by reverse transcription of 5 μg total RNA, followed by PCR mGlu2 receptor specific primers 5′-[…]-3′ and 5′-[…]-3′in 60 mM Tris HCl (pH 10), 15 mM (NH4)2SO4, 2 mM MgCl2, 25 units/ml Taq Polymerase with 30 cycles annealing at 60° C. for 1 min., extention at 72° C. for 30 s, and 1 min. 95° C. denaturation.
Cells, cultured as above, were harvested and washed three times with cold PBS and frozen at −80° C. The pellet was resuspended in cold 20 mM HEPES-NaOH buffer containing 10 mM EDTA (pH 7.4), and homogenised with a polytron (Kinematica, AG, Littau, Switzerland) for 10 s at 10 000 rpm. After centrifugation for 30 min. at 4° C., the pellet was washed once with the same buffer, and once with cold 20 mM HEPES-NaOH buffer containing 0.1 mM EDTA, (pH 7.4). Protein content was measured using the micro BCA method from Pierce-Perbio (Rockford, Ill., USA) using bovine serum albumin as standard.
After thawing, the membranes were resuspended in cold 50 mM Tris-HCl buffer containing 2 mM MgCl2 (pH 7) (binding buffer). The final concentration of the membranes in the assays was 25 μg protein/ml. Inhibition experiments were performed with membranes incubated with 10 nM [^3H]-LY354740 at room temperature, for 1 hour, in presence of various concentrations of the compound to be tested. Following the incubations, membranes were filtered onto Whatmann GF/B glass fiber filters and washed 5 times with cold binding buffer. Non specific binding was measured in the presence of 10 μM DCG IV. After transfer of the filters into plastic vials containing 10 ml of Ultima-gold scintillation fluid from Perkin-Elmer(Boston, Mass., USA), the radioactivity was measured by liquid scintillation in a Tri-Carb 2500 TR counter (Packard, Zürich, Switzerland).
The inhibition curves were fitted with a four parameter logistic equation giving IC50 values, and Hill coefficients.

T1 sequence (P31421 19-872): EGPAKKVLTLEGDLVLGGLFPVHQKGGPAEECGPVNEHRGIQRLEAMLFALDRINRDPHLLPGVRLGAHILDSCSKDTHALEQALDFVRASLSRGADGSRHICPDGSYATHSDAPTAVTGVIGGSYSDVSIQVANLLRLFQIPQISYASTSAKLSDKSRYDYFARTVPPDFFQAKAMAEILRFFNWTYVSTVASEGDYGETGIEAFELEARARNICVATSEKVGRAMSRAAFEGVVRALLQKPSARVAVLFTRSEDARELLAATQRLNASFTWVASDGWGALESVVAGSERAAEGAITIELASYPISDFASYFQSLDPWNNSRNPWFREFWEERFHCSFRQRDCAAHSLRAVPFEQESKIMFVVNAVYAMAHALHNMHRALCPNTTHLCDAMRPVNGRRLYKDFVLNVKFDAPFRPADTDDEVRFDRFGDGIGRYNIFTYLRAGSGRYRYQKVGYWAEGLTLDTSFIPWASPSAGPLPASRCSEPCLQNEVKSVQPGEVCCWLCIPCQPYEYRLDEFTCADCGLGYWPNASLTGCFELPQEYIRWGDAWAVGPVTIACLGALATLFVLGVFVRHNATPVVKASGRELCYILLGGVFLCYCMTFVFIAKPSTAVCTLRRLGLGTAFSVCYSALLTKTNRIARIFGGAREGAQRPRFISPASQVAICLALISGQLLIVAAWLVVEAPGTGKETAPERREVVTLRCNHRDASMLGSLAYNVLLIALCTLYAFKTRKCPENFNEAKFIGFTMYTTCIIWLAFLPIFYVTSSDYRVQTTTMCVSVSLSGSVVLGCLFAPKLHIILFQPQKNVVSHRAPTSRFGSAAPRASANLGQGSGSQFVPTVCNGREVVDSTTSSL

| SMILES | Ki (rat mGlu2 receptor) | melting point |
| --- | --- | --- |
| NS(=O)(=O)c1nnc(NC(=O)c2cnn3c(C(F)F)cc(-c4ccc(C(F)(F)F)cc4)nc23)s1 [Example 3, 7-Difluoromethyl-5-(4-trifluoromethyl-phenyl)-pyrazolo[1,5-a]pyrimidine-3-carboxylic acid (5-sulfamoyl-[1,3,4]thiadiazol-2-yl)-amide] | 142 nM | 284 °C |
| O=C(Nc1cc(S(=O)(=O)N(CCO)CCO)sc1Cl)c1cnn2c(C(F)(F)F)cc(-c3ccc(C(F)(F)F)cc3)nc12 [Example 35, 7-Trifluoromethyl-5-(4-trifluoromethyl-phenyl)-pyrazolo[1,5-a]pyrimidine-3-carboxylic acid {5-[bis-(2-hydroxy-ethyl)-sulfamoyl]-2-chloro-thiophen-3-yl}-amide] | 27 nM | 217 °C |
| Cc1nc(NC(=O)c2cnn3c(C(F)(F)F)cc(-c4ccc(C(F)(F)F)cc4)nc23)sc1S(N)(=O)=O [Example 8, 7-Trifluoromethyl-5-(4-trifluoromethyl-phenyl)-pyrazolo[1,5-a]pyrimidine-3-carboxylic acid (4-methyl-5-sulfamoyl-thiazol-2-yl)-amide] | 2.5 nM | 303 °C |
